Data as given in US20220378954A1, “METHODS FOR RADIOLABELLING GRPR ANTAGONISTS AND THEIR KITS” (NOVARTIS AG, priority 2019, published 2022).
Where “and” joins values, the source holds several entries; their conditions need not be identical. Equal values may be shown once.

Experiment: Peptide adhesion tests (non-specific binding of NeoB to glass and plastic surfaces)
Type: physicochemical
Conditions: final formulation: NeoB 50 μg, Mannitol 20 mg, Kolliphor HS15 500 μg, Gentisic acid 200 μg; three independent radiolabelling tests; adhesion to the glass

## CC(C)CC(CC(C)C)NC(=O)[C@H](Cc1cnc[nH]1)NC(=O)CNC(=O)[C@@H](NC(=O)[C@H](C)NC(=O)[C@H](Cc1c[nH]c2ccccc12)NC(=O)[C@H](CCC(N)=O)NC(=O)[C@@H](Cc1ccccc1)NC(=O)COCC(=O)Nc1ccc(CNC(=O)CN2CCN(CC(=O)O)CCN(CC(=O)O)CCN(CC(=O)O)CC2)cc1)C(C)C [NeoB]
  Peptide Adhesion (%): 4.8% and 5.0% and 5.8%
